≈ marks a conversion by molar mass, not a printed value. Read-outs that look alike come from different tables or passages of the source.
Legend:
Assay in all cases: MIC determination on r-methylase-expressing resistant Gram (-) bacteria
E. aerogenes 06AB008 arm = assay type: cell-based, Enterobacter aerogenes; settings: Klebsiella aerogenes, 06AB008ARM, 24 h
Method: (§1) The molecules were dissolved in water or DMSO at a concentration of 5 or 10 mg/mL, then the solutions were diluted if necessary. A volume of 200 μL of each of them was put onto a 96-well plate.
(§2) C—Determination of the MIC
(§3) The molecules with a screening score of 10 or 100 were selected to determine their MICs relative to the strains tested.
(§4) As for the validation of the strains, the solution of the molecule selected was diluted by a factor of 2, times 2, using the Biomek2000 robot in 96-well plates to cover a wide range of concentrations. To each of these wells was added a volume of inoculum made from the previous days preculture diluted to 1/100th strength. Each well was repeated. Again, controls of non-contamination, growth and resistance/sensitivity to a reference antibiotic were included in the experiment. The plate was incubated at 37° C., and the kinetics of the bacterial proliferation were monitored over 24 hours, by measuring the OD620 nm at 0, 1, 4, 7, and 24 hours.
(§5) The MIC was the lowest concentration found to be capable of inhibiting bacterial proliferation after 24 hours incubation. Having no previous idea of this value it was possible that it might not fall within the range of dilutions chosen. If this was the case the operation had to be repeated adjusting this range.
(§6) Similar measurements were made on various Gram (−) bacteria. The strains tested were provided by R. Vanhoof (E. coli PAZ505H8101 and L58058.1, P. aeruginosa ATCC 27853, Psa.F03, A. lwoffi A1.88-483), Y. Glupczynski (C. amalonaticus Ca06AB0010), J. C. Pechere (P. aeruginosa PA02, PA03), P. Plésiat (P. aeruginosa PA01, PA21, PA22), H. Schweizer (P. aeruginosa PA405, PA406).

[1] = tested on: C. amalonaticus 06AB0010 arm; assay type: cell-based; settings: Citrobacter amalonaticus, 06AB0010ARM
Method: as §1, §2, §3, §4, §5, §6

E. coli 06AB003 arm = assay type: cell-based; settings: Escherichia coli, 06AB003ARM, 24 h
Method: as §1, §2, §3, §4, §5, §6

NCC1OC(OC2C(N)CC(N)C(OCc3cccc4ccccc34)C2O)C(N)C(OCc2cccc3ccccc23)C1O (stereo not drawn) [3′,6-di1NM, 3′,6-O,O′-di(naphthyl-1-methylene) neamine]
MIC (E. aerogenes 06AB008 arm): 4 to 16 µg/mL (≈ 6.64 to 26.5 µM) | MIC ([1]; resistant bacteria expressing an RNA methylation enzyme (r-methylase), one value stated for the three strains together, 24 hours incubation, read-out: MIC): 4 to 16 µg/mL (≈ 6.64 to 26.5 µM) | MIC (E. coli 06AB003 arm): 4 to 16 µg/mL (≈ 6.64 to 26.5 µM)

NCC[C@H](O)C(=O)N[C@@H]1C[C@H](N)[C@@H](O[C@H]2O[C@H](CN)[C@@H](O)[C@H](O)[C@H]2O)[C@H](O)[C@H]1O[C@H]1O[C@H](CO)[C@@H](O)[C@H](N)[C@H]1O [amikacin]
MIC (E. aerogenes 06AB008 arm): > 128 µg/mL | MIC ([1]; 24 h): > 128 µg/mL | MIC (E. coli 06AB003 arm): > 128 µg/mL

NC[C@H]1O[C@H](O[C@H]2[C@H](O)[C@@H](O[C@H]3O[C@H](CO)[C@@H](O)[C@H](N)[C@H]3O)[C@H](N)C[C@@H]2N)[C@H](N)C[C@@H]1O [tobramycin]
MIC (E. aerogenes 06AB008 arm): > 128 µg/mL | MIC ([1]; 24 h): > 128 µg/mL | MIC (E. coli 06AB003 arm): > 128 µg/mL
